BigSolDB 2.1

COc1ccc(-n2nc(C(N)=O)c3c2C(=O)N(c2ccc(N4CCCCC4=O)cc2)CC3)cc1
solubility (mole fraction)
Settings	288.15 K	293.15 K	298.15 K	303.15 K	308.15 K	313.15 K	318.15 K	323.15 K	328.15 K
in acetone	0.00024	0.000276	0.00032	0.000377	0.000436	0.00051	0.000584	0.000669	0.000754
in ethanol	0.000112	0.000144	0.00018	0.00022	0.000268	0.00033	0.000402	0.000474	0.000572
in isopropanol	6.12e-05	7.67e-05	9.95e-05	0.000133	0.000167	0.000214	0.000271	0.00033	0.000404
in methanol	0.000327	0.000416	0.00053	0.000669	0.000842	0.00104	0.00128	0.00156	0.00188
in water	9.68e-06	1.13e-05	1.39e-05	1.67e-05	1.95e-05	2.31e-05	2.74e-05	3.19e-05	3.72e-05
